Consider two compounds from patent US10294234B2, “HIV inhibitor compounds” (priority 2017, dated 2019).

Read-outs that look alike come from different tables or passages of the source.

One data set deals with recombinant HIV protease (Human immunodeficiency virus type 1 group M subtype B, UniProt P04585). The data set can be described thus: biochemical.
The subject of data set [1] is HIV-1 (IIIB) in MT-4 cells. Description: Protein adjusted EC95 (high resolution antiviral assay with equilibrium dialysis plasma protein binding). It counts as cell-based. The following applies: EC95 adjusted for plasma protein binding (10% plasma vs cell culture media). As for the experimental part:
(§1) MT-4 HIV High Resolution Antiviral Assay
(§2) Assay protocol is identical to that described for the MT-4 antiviral assay with the following changes: Each drug is run in 2 series of quadruplicates with different starting concentrations for each series and 19 1.5 fold dilutions performed across the plate. […] Data is analyzed and Hill coefficients determined in Graph Pad Prism (San Diego, Calif.). EC95s were determined by the formula EC95=(19)^I/hill coefficient×EC50. HD values were determined for certain compounds and reported in Table 5 below as an illustrative example.
Equilibrium Dialysis Assay
Pooled plasma (from at least 3 males and 3 females) was from Bioreclamation IVT. Sodium EDTA was used as the anticoagulant. 10% plasma was diluted in 0.133M phosphate buffer consisted of 1.5% (w/v) Sodium EDTA.
RPMI cell culture media consisted 10% FBS was provided by biology department, Gilead Sciences, Inc.
Plasma Protein Binding Assay:
Studies were conducted in duplicate or triplicate using a Dianorm Equilibrium Dialyser (Harvard Apparatus, Holliston Mass.) with each cell consisting of a semipermeable membrane (2.4 cm working diameter) separating two 1 mL PTFE half-cells (Weder HG, Schildknecht J, Kesselring P. A new equilibrium dialyzing system. American Laboratory. 1971; 10: 15-21). Prior to the study, the dialysis membrane was soaked for approximately one hour in 0.133 M phosphate buffer, pH 7.4. 10% plasma and cell culture media spiked with 1 μM compound (1 mL) were placed into opposite sides of the assembled dialysis cells and the dialysis cells were then rotated slowly in a 37° C. water bath. After the equilibration period, matrix-containing samples from both sides were drained into pre-weighed polypropylene tubes. Post-dialysis 10% plasma samples were transferred into centrifuge tubes containing 1 mL of blank cell culture media. Post-dialysis cell culture media samples were transferred into centrifuge tubes containing 1 mL of blank 10% plasma. All samples weights were measured and recorded for calculations of volume shift and recovery. […]
(In equilibrium dialysis free small molecules cross a membrane that holds back macromolecules.)

For data set [2] the following is noted: 1 uM compound, NADPH. In outline: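 Dog, rat and human liver microsomes (0.5 mg/mL) with NADPH-regenerating cofactor; test compound 1 uM, duplicates. Timepoints 2, 12, 25, 45, 65 min; protein removed by centrifugation, supernatant analysed by LC/MS/MS. Clint from t1/2.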
Data set [3] has as its system HIV-1 (IIIB) in MT-4 cells. Description: MT-4 HIV High Resolution Antiviral Assay. It is filed as cell-based. The following applies: for EC50: Human immunodeficiency virus 1, IIIB, MT4; for EC95: calculated from Hill coefficient and EC50; for Hill-coefficient: Graph Pad Prism. On the procedure:
Compounds were tested in a high-throughput 384-well assay format for their ability to inhibit the replication of HIV-1 (IIIB) in MT-4 cells. Compounds were serially diluted (1:3) in DMSO on 384-well polypropylene plates and further diluted 200-fold into complete RPMI media (10% FBS, 1% P/S) using the Biotek Micro Flow and Agilent ECHO acoustic dispenser. Each plate contained up to 8 test compounds, with negative (No Drug Control) and 5 uM AZT positive controls. MT-4 cells were pre-infected with 10 uL of either RPMI (mock-infected) or a fresh 1:250 dilution of an HIV-1 (IIIB) concentrated virus stock. Infected and uninfected MT-4 cells were further diluted in complete RPMI media and added to each plate using a Micro Flow dispenser. After 5 days incubation in a humidified and temperature controlled incubator (37° C.), Cell Titer Glo (Promega) was added to the assay plates to quantify the amount of luciferase. EC50 and CC50 values were defined as the compound concentration that causes a 50% decrease in luminescence signal, and were calculated using a sigmoidal dose-response model to generate curve fits.
as §1, §2

Data set [4] can be described thus: in vivo. The following applies: for DOG PO F: oral gavage; for Vd: male, beagle, dog, iv. As for the experimental part:
Pharmacokinetic Profiling Dog PK
Each dosing group consisted of three non-naïve male beagle dogs. At dosing, the animals weighed between 9 to 12 kg. The animals were fasted overnight prior to dose administration and up to four hours after dosing. The test article was administered by intravenous infusion over 30-minutes. The rate of infusion was adjusted according to the body weight of each animal to deliver a dose of 0.5 or 1.0 mg/kg. For the oral dosing group, the test article was administered by oral gavage at a dose volume of 2 mL/kg.
Serial venous blood samples (approximately 1.0 mL each) were collected at predose and 0.25, 0.48, 0.58, 0.75, 1.0, 1.5, 2, 4, 8, 12 and 24 hours post dose from each animal for the IV dosing group; blood samples were collected at predose, 0.25, 0.50, 1, 2 4, 6, 8,12 and 24 hours post dose for the oral dosing group. The blood samples were collected into Vacutainer™ tubes containing EDTA-K2 as the anti-coagulant and were immediately placed on wet ice pending centrifugation for plasma. An LC/MS/MS method was used to measure the concentration of test compound in plasma. Non-compartmental pharmacokinetic analysis was performed on the plasma concentration-time data. VSS=apparent volume of distribution, t1/2=half life, F=oral bioavailability.

Data set [5] can be described thus: in vivo. Summed up:
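Male SD rats (n=3/group, 0.27–0.32 kg), fasted overnight, given 0.5 or 1.0 mg/kg by 30-min IV infusion, or by oral gavage. Serial plasma samples (EDTA-K2) over 24 h measured by LC/MS/MS; non-compartmental PK analysis.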

Where [6] appears, read: male beagle dogs, IV infusion over 30 minutes, 0.5 or 1.0 mg/kg.

Method for recombinant HIV protease: Inhibitor potency was measured using an enzymatic assay with a fluorogenic readout. […] After a 20-minute pre-incubation, the enzymatic reaction was initiated by the addition of the fluorogenic substrate (2-aminobenzoyl)Thr-Ile-Nle-(p-nitro)Phe-Gln-Arg (Bachem) to a final concentration of 40 μM. The total volume of the assay solution was 100 µL. The reaction was measured over 20 minutes on a Tecan Infinite M1000 plate reader using an excitation wavelength of 320 nm and a detection wavelength of 420 nm. The slopes of the progress curves were the measure of reaction rates.

Turning to `COC(=O)N[C@H](C(=O)N[C@@H](Cc1ccccc1)[C@@H](O)CN(Cc1ccc(-c2ccccn2)cc1)NC(=O)[C@@H](NC(=O)OC)C(C)(C)C)C(C)(C)C` [atazanavir, methyl N-[(2S)-1-[2-[(2S,3S)-2-hydroxy-3-[[(2S)-2-(methoxycarbonylamino)-3,3-dimethylbutanoyl]amino]-4-phenylbutyl]-2-[(4-pyridin-2-ylphenyl)methyl]hydrazinyl]-3,3-dimethyl-1-oxobutan-2-yl]carbamate, reference compound], on recombinant HIV protease, the Ki – broadly, the equilibrium dissociation constant of an inhibitor or competing ligand from its target – came to 0.035 nM. Further, in data set [1], the “Protein Adjusted EC95” value is recorded as 75 nM. The “Dog. Pred. Cl.” value in data set [2] (dog liver microsomes 0.5 mg/mL) is 1.4 L/H/kg. In addition, the “Human Pred Cl.” value in data set [2] (human liver microsomes 0.5 mg/mL) was 1.07 L/H/kg. Moreover, the “Rat. Pred. Cl.” value in data set [2] (rat liver microsomes 0.5 mg/mL) turned out to be 3.7 L/H/kg. The concentration for a half-maximal effect (EC50) (usually the concentration giving half of the maximal effect) in data set [3] (high resolution assay, 40 data points, MT-4 cells, read-out: EC50) stood at 9.7 nM. Also, in data set [3], the EC95 – broadly, the concentration at which the effect reaches the 95% level – is 25 nM. This compound also showed a Hill-coefficient in data set [3] (high resolution assay) of 3.1. In addition, in “in vivo [4]” (setting [6]), the “DOG IV CL” value was 16.7 mL/min/kg and the “DOG IV T1/2” value turned out to be 78 min. For the same compound, the “DOG PO F” value in “in vivo [4]” (male beagle dogs, PO dose 10 mg/kg) stood at 48%. In addition, in the data set “in vivo [4]” (plasma), the Vd – broadly, a proportionality between amount in the body and measured concentration, not a real space – was 0.9 L/kg. In “in vivo [5]” (male, SD, rat, in vivo, iv), this compound had a volume of distribution (Vd) of 0.87 L/kg. The “RAT PO F” value in “in vivo [5]” (male, SD, rat, in vivo, po, 5 mg/kg) is 38%. In the data set “in vivo [5]” (rat, in vivo, iv), the “RAT IV CL” value is 45 mL/min/kg and the “RAT IV T1/2” value worked out at 22.2 min.

As for `CC(C)CN(C[C@@H](O)[C@H](Cc1ccccc1)NC(=O)O[C@H]1CO[C@H]2OCC[C@H]21)S(=O)(=O)c1ccc(N)cc1` [darunavir, [(3aS,4R,6aR)-2,3,3a,4,5,6a-hexahydrofuro[2,3-b]furan-4-yl] N-[(2S,3R)-4-[(4-aminophenyl)sulfonyl-(2-methylpropyl)amino]-3-hydroxy-1-phenylbutan-2-yl]carbamate, reference compound], the “Protein Adjusted EC95” value in data set [1] came out at 42 nM. Moreover, in data set [3], the EC50 came to 7.2 nM and the EC95 is on record as 19.9 nM. In addition, the Hill-coefficient in data set [3] (high resolution assay) was found to be 2.9. Also, the “DOG PO F” value in “in vivo [4]” (male beagle dogs, PO dose 2 mg/kg) is 38%. Also, the Vd in “in vivo [4]” (in vivo) is 0.87 L/kg. Further, the “RAT PO F” value in the data set “in vivo [5]” (male SD rats, oral gavage, PO dose 2.0 mg/kg) is given as 24%. The compound further returned a distribution volume (Vd) in the data set “in vivo [5]” (male, SD, rat, in vivo, iv) of 0.73 L/kg.
